# Data taken from ChEMBL document CHEMBL2021873, “Blocking HIV-1 entry by a gp120 surface binding inhibitor” (Bioorg Med Chem Lett, 2012).
# Calls of active or inactive are those of the source. The calls are words filed in the database; no cut-off is given here.
# Tests used:
# [1] = tested on: Human immunodeficiency virus 1; assay: Antiviral activity against Human immunodeficiency virus 1 Clade C Du422.1 infected in human TZM-bl cells after 2 days by luciferase reporter gene analysis; assay type: functional, organism-based; conditions: Human immunodeficiency virus 1, Clade C Du422.1, TZM-bl, 48 h
# [2] = tested on: Human immunodeficiency virus 1; assay: Antiviral activity against Human immunodeficiency virus 1 Clade B NL4.3 infected in human TZM-bl cells after 2 days by luciferase reporter gene analysis; assay type: functional, organism-based; conditions: Human immunodeficiency virus 1, Clade B NL4.3, TZM-bl, 48 h
# [3] = tested on: Human immunodeficiency virus 1; assay: Antiviral activity against Human immunodeficiency virus 1 Clade C Du151.2 infected in human TZM-bl cells after 2 days by luciferase reporter gene analysis; assay type: functional, organism-based; conditions: Human immunodeficiency virus 1, Clade C Du151.2, TZM-bl, 48 h
# [4] = tested on: Human immunodeficiency virus 1; assay: Antiviral activity against Human immunodeficiency virus 1 Clade B 7165.18 infected in human TZM-bl cells after 2 days by luciferase reporter gene analysis; assay type: functional, organism-based; conditions: Human immunodeficiency virus 1, Clade B 7165.18, TZM-bl, 48 h
# [5] = tested on: Human immunodeficiency virus 1; assay: Antiviral activity against Human immunodeficiency virus 1 Clade B RHPA4259.7 infected in human TZM-bl cells after 2 days by luciferase reporter gene analysis; assay type: functional, organism-based; conditions: Human immunodeficiency virus 1, Clade B RHPA4259.7, TZM-bl, 48 h
# [6] = tested on: Human immunodeficiency virus 1; assay: Antiviral activity against Human immunodeficiency virus 1 Clade B 5768.4 infected in human TZM-bl cells after 2 days by luciferase reporter gene analysis; assay type: functional, organism-based; conditions: Human immunodeficiency virus 1, Clade B 5768.4, TZM-bl, 48 h
# [7] = tested on: Human immunodeficiency virus 1; assay: Antiviral activity against Human immunodeficiency virus 1 Clade B WITO4160.33 infected in human TZM-bl cells after 2 days by luciferase reporter gene analysis; assay type: functional, organism-based; conditions: Human immunodeficiency virus 1, Clade B WITO4160.33, TZM-bl, 48 h
# [8] = tested on: Human immunodeficiency virus 1; assay: Antiviral activity against Human immunodeficiency virus 1 Clade C ZM197M.PB7 infected in human TZM-bl cells after 2 days by luciferase reporter gene analysis; assay type: functional, organism-based; conditions: Human immunodeficiency virus 1, Clade C ZM197M.PB7, TZM-bl, 48 h
# [9] = tested on: Human immunodeficiency virus 1; assay: Competitive inhibition of Human immunodeficiency virus 1 3B gp120 V3 loop assessed as blockade of 39F antibody binding by ELISA
# [10] = tested on: Human immunodeficiency virus 1; assay: Competitive inhibition of Human immunodeficiency virus 1 3B gp120 V3 loop assessed as blockade of 447-52D antibody binding by ELISA
# [11] = tested on: Human immunodeficiency virus 1; assay: Antiviral activity against Human immunodeficiency virus 1 Clade B SS1196.1 infected in human TZM-bl cells after 2 days by luciferase reporter gene analysis; assay type: functional, organism-based; conditions: Human immunodeficiency virus 1, Clade B SS1196.1, TZM-bl, 48 h
# [12] = tested on: Human immunodeficiency virus 1; assay: Antiviral activity against Human immunodeficiency virus 1 3B infected in human TZM-bl cells assessed as inhibition of viral replication at 1 uM by luminometric analysis; assay type: functional, organism-based; conditions: TDE = time-dependent effect
# [13] = tested on: Human immunodeficiency virus 1; assay: Competitive inhibition of Human immunodeficiency virus 1 3B gp120 V3 loop assessed as blockade of PK70 antibody binding by ELISA
# [14] = tested on: Human immunodeficiency virus 1; assay: Antiviral activity against Human immunodeficiency virus 1 DH012; assay type: functional, organism-based
# [15] = tested on: Human immunodeficiency virus 1; assay: Antiviral activity against Human immunodeficiency virus 1 Clade C ZM109F.PB4 infected in human TZM-bl cells after 2 days by luciferase reporter gene analysis; assay type: functional, organism-based; conditions: Human immunodeficiency virus 1, Clade C ZM109F.PB4, TZM-bl, 48 h
# [16] = tested on: Human immunodeficiency virus 1; assay: Antiviral activity against Human immunodeficiency virus 1 YU-2; assay type: functional; conditions: isolate YU2
# [17] = tested on: Human immunodeficiency virus 1; assay: Competitive inhibition of Human immunodeficiency virus 1 3B gp120 glycan loop assessed as blockade of 2G12 antibody binding by ELISA
# [18] = tested on: Human immunodeficiency virus 1; assay: Antiviral activity against BMS-378806-resistant Human immunodeficiency virus 1 DH012 T/P; assay type: functional, organism-based
# COS = assay: (§1) Inhibition of Human immunodeficiency virus 1 3B gp120 expressed in african green monkey COS cells assessed as inhibition of […] between gp120 and CD4 expressed on human TZM-bl cells by ELISA; assay type: cell-based
# [19] = tested on: Human immunodeficiency virus 1; assay: Antiviral activity against Human immunodeficiency virus 1 3B infected in human TZM-bl cells assessed as inhibition of viral replication at 0.33 uM by luminometric analysis; assay type: functional, organism-based; conditions: TDE = time-dependent effect
# [20] = tested on: Human immunodeficiency virus 1; assay: Antiviral activity against BMS-378806-resistant Human immunodeficiency virus 1 YU-2 T/P; assay type: functional; conditions: Human immunodeficiency virus type 1 (isolate YU2)
# [21] = tested on: Human immunodeficiency virus 1; assay: Antiviral activity against Human immunodeficiency virus 1 Clade C Du123.6 infected in human TZM-bl cells after 2 days by luciferase reporter gene analysis; assay type: functional, organism-based; conditions: Human immunodeficiency virus 1, Clade C Du123.6, TZM-bl, 48 h
# [22] = tested on: Human immunodeficiency virus 1; assay: Antiviral activity against Human immunodeficiency virus 1 Clade B REJO4541.67 infected in human TZM-bl cells after 2 days by luciferase reporter gene analysis; assay type: functional, organism-based; conditions: Human immunodeficiency virus 1, Clade B REJO4541.67, TZM-bl, 48 h
# [23] = as §1; assay type: cell-based
smiles,measurement,setting,value
CCCCOc1c2cc(C(=O)Nc3cc(C(=O)O)cc(C(=O)O)c3)cc1Cc1cc(C(=O)Nc3cc(C(=O)O)cc(C(=O)O)c3)cc(c1OCCCC)Cc1cc(C(=O)Nc3cc(C(=O)O)cc(C(=O)O)c3)cc(c1OCCCC)Cc1cc(C(=O)Nc3cc(C(=O)O)cc(C(=O)O)c3)cc(c1OCCCC)C2,IC50,[1],1800 nM
same,IC50,[2],650 nM
same,IC50,[3],3100 nM
same,IC50,[4],4500 nM
same,IC50,[5],3100 nM
same,IC50,[6],4100 nM
same,IC50,[7],1800 nM
same,IC50,[8],2700 nM
same,inhibition,[9],Active
same,inhibition,[10],Dose-dependent effect
same,IC50,[11],2800 nM
same,Activity,[12],tde
same,inhibition,[13],Active
same,Activity,[14],Active
same,IC50,[15],3900 nM
same,Activity,[16],Active
same,inhibition,[17],inactive
same,Activity,[18],Active
same,inhibition,COS,Dose-dependent effect
same,Activity,[19],tde
same,Activity,[20],Active
same,IC50,[21],1400 nM
same,IC50,[22],1900 nM
CCCCOc1c2cc(C(=O)Nc3cc(C(=O)O)cc(C(=O)OCc4ccccc4)c3)cc1Cc1cc(C(=O)Nc3cc(C(=O)O)cc(C(=O)OCc4ccccc4)c3)cc(c1OCCCC)Cc1cc(C(=O)Nc3cc(C(=O)O)cc(C(=O)OCc4ccccc4)c3)cc(c1OCCCC)Cc1cc(C(=O)Nc3cc(C(=O)O)cc(C(=O)OCc4ccccc4)c3)cc(c1OCCCC)C2,inhibition,[10],inactive
same,EC50,[23],> 70000 nM
